Test results reported in patent publication US20260275292A1, “MATURATION MEDIUM COMPOSITIONS AND METHODS FOR HUMAN HEART ORGANOID MATURATION” (Board of Trustees of Michigan State University, priority 2022, published 2026).
Counter-ions that a name gives are not always drawn. Blank lines part the entries; values can stand above or below the compound they belong to.

Legend:
human heart organoids [1] = test: Immunofluorescence, confocal microscopy and image analysis; assay type: cell-based
Procedure: Immunofluorescence. Human heart organoids were transferred from the round bottom ultra-low attachment 96 well plate to 1.5 mL microcentrifuge tubes (Eppendorf) using a cut 200 μL pipette tip (to increase tip bore diameter as to not disturb the organoid). Organoids were fixed in 4% paraformaldehyde (VWR) in PBS for 30 minutes. Following, organoids were washed using PBS-Glycine (1.5 g/L) three times for 5 minutes each. Organoids were then blocked and permeabilized using a solution containing 10% Donkey Normal Serum (Sigma), 0.5% Triton X-100 (Sigma), and 0.5% BSA (Thermo Fisher Scientific) in PBS on a thermal mixer at 300 rpm at 4° C. overnight. Organoids were then washed 3 times using PBS and incubated with primary antibodies (Table 4) within a solution containing 1% Donkey Normal Serum, 0.5% Triton X-100, and 0.5% BSA in PBS (hereafter termed “Antibody Solution”) on a thermal mixer at 300 rpm at 4° C. for 24 hours.
Following, organoids were washed 3 times for 5 minutes each using PBS. Organoids were then incubated with secondary antibodies (Table 4) in Antibody Solution on a thermal mixer at 300 rpm at 4° C. for 24 hours in the dark. Subsequently, organoids were washed 3 times for 5 minutes each using PBS and mounted on glass microscope slides (Fisher Scientific). 90 μm Polybead Microspheres (Polyscience, Inc.) were placed between the slide and a No. 1.5 coverslip (VWR) to provide support pillars such that the organoids could retain three dimensionality. Organoids were transferred to the glass microscope slides using a cut 200 uL pipette tip and mounted using a clearing solution described previously^153. T-tubule staining was performed using FITC-conjugated Wheat Germ Agglutinin (WGA) lectins (Sigma).
Confocal Microscopy and Image Analysis. […] Images were analyzed using Fiji. […] Thresholds were generated for the equalized image intensity values.
(§1) Ondansetron treatment. Ondansetron hydrochloride (Sigma) was prepared at 200 μM in DMSO and was further diluted in DMEM/F12 ((Dulbecco's Modified Eagle Medium/Nutrient Mixture F-12) before being sterile filtered via a 0.22 μm PVDF filter (Sigma). Ondansetron was applied to heart organoids at final concentrations of 1 μM, 10 μM, and 100 μM in EMM2/1 medium, and was applied from Day 9 to Day 20 of culture. Organoids were collected on Day 30 for analysis.
DEAB and Retinoic Acid treatment. 4-Diethylaminobenzaldehyde (DEAB) (Sigma) was prepared at 1 M in DMSO, diluted further to 10 mM using DMSO, then finally diluted to 1 mM in DMEM/F12. Retinoic Acid (RA) (Sigma) was prepared at 1 M in DMSO, and diluted to 100 μM in DMEM/F12. Diluted solutions of DEAB and RA were sterile filtered via 0.22 μm PVDF filters (Sigma). […] DEAB, RA, and DEAB+RA were applied to heart organoids from Day 20 to Day 30 of culture using the EMM2/1 strategy. Organoids were collected on Day 30 for analysis.

human heart organoids [2] = test: Real time RT-PCR gene expression in heart organoids; assay type: cell-based; conditions: day 30, EMM2/1 organoids
Procedure: Real time RT-PCR. Organoids were collected at day 20, 21, 23, 25, and 30 and stored in RNAprotect (Qiagen) at −20° C. RNA was extracted using the Qiagen RNEasy Mini Kit according largely to the manufacturer's instructions. Organoids were lysed using the Bead Mill 4 Homogenizer (Fisher Scientific) at speed 2 for 30 seconds. RNA concentration was measured using a NanoDrop One (Thermo Fisher Scientific). A minimum threshold of […] was required to proceed with reverse transcription. cDNA was generated using the Quantitect Reverse Transcription Kit (Qiagen) and stored at −20° C. Primers for real time qPCR were designed using the Primer Quest tool (Integrated DNA Technologies). SYBR Green (Thermo Fisher Scientific) was used as the DNA intercalating dye and the amplifier for the reaction vessel. Real time qPCR was performed using the QuantStudio 5 Real-Time PCR system (Applied Biosystems) using a total reaction volume of 20 μL. Gene expression levels were normalized to HPRT1 expression in each independent sample. Log base 2 fold change values were obtained using the double delta CT method.

human heart organoids [3] = test: Voltage imaging with di-8-ANEPPS; assay type: cell-based; conditions: 10 and 100 μM conditions
Procedure: Voltage imaging. Voltage activity within human heart organoids was assessed using di-8-ANEPPS (Thermo Fisher Scientific). Di-8-ANEPPS was solubilized in DMSO per the manufacturer's instructions. A 15 μM solution of di-8-ANEPPS was prepared in respective medium (Control, MM, EMM1, etc.). Organoids were washed twice using RPMI 1640 basal medium, then di-8-ANEPPS was added at a final concentration of 10 μM and incubated for 30 minutes at 37° C. and 5% CO2. Organoids were then washed twice using their respective medium (Control, MM, EMM1, etc.) and transferred to a chambered coverglass slide (Cellvis) using a cut 200 μL pipette tip. Videos were acquired using a Cellvivo microscope (Olympus) at 100 frames per second over 10 total seconds as an image stack at either 20× magnification (ondansetron) or 100× magnification (maturation electrophysiology). Samples were excited at 465 nm excitation and 630 nm emission was collected. Data was processed using Fiji and Microsoft Excel. Baseline F0 of fluorescence intensity F was calculated using the average of the lowest 50 intensity values in the acquired dataset. Fluorescence change ΔF/F0 was calculated using the same method as with Calcium imaging presented above. APD30 and APD90 were measured from the midpoint of the upstroke until 30% or 90% repolarization, respectively^162.
as §1

human heart organoids [4] = test: Brightfield microscopy of organoid size and beating; assay type: cell-based
human heart organoids [5] = tested on: human heart organoids
human heart organoids [6] = test: FlipGFP (active caspase 3) apoptosis reporter fluorescence in heart organoids; conditions: 10 μM, 48 hours, Day 28 to Day 30, EMM2/1 organoids
[7] = 10 μM, Day 20 to Day 30, EMM2/1 organoids

SMILES: CCN(CC)c1ccc(C=O)cc1 [DEAB, 4-Diethylaminobenzaldehyde]
- MYL3+ area relative to Untreated organoids (human heart organoids [1]; [7]): 0.35 fold
- NR2F2+ area relative to Untreated organoids (human heart organoids [1]; [7]): 0.42 fold

- MYL2 expression relative to Untreated (human heart organoids [2]; 10 μM): 0.58 fold
- MYL2 expression relative to Untreated (human heart organoids [2]; 100 μM): 0.40 fold
- APD30 compared to Untreated (human heart organoids [3]): increased
- APD90 compared to Untreated (human heart organoids [3]): increased
- action potential amplitude compared to Untreated (human heart organoids [3]): decreased
- action potential frequency compared to Untreated (human heart organoids [3]): decreased frequencies
- MYL2+ area relative to Untreated (human heart organoids [1]; 10 μM, day 9 until day 30, EMM2/1 organoids): 0.55 fold
- MYL2+ area relative to Untreated (human heart organoids [1]; 100 μM, day 9 until day 30, EMM2/1 organoids): 0.18 fold
- structural organization of organoids compared to Untreated (human heart organoids [1]; 100 μM, day 30, EMM2/1 organoids): structurally less organized
- MYL7+ area (human heart organoids [1]; 1, 10 and 100 μM, day 9 until day 30, EMM2/1 organoids): remained unchanged
- beating of heart organoids over time (human heart organoids [4]; 100 μM condition): most marked loss in cardiac activity
- beating of heart organoids over time (human heart organoids [4]; day 0 to day 30, all concentrations): progressive loss of beating
SMILES: Cc1nccn1CC1CCc2c(c3ccccc3n2C)C1=O (stereo not shown) [ondansetron, Ondansetron hydrochloride]
- apoptosis (FlipGFP fluorescence) (human heart organoids [5]): does not contribute to apoptosis

SMILES: COc1cccc2c1C(=O)c1c(O)c3c(c(O)c1C2=O)C[C@@](O)(C(=O)CO)C[C@@H]3O[C@H]1C[C@H](N)[C@H](O)[C@H](C)O1 [doxorubicin, Doxorubicin hydrochloride]
- FlipGFP fluorescence (apoptosis), positive control (human heart organoids [6]): high levels of fluorescence
